Where a SMILES comes first, the peptide text is derived from it. The star is where a group is joined. AMC = Cc1cc(=O)oc2cc(N*)ccc12; Cbz = O=C(OCc1ccccc1)*
Biological target: Human CatB (human wild-type cathepsin B) (Homo sapiens, UniProt P07858, S194A)
Details: read-out: Human CatB / Km; 37 °C; pH not stated for the Km assay

Km | SMILES
47 µM | Cc1cc(=O)oc2cc(NC(=O)[C@H](CCCNC(=N)N)NC(=O)[C@H](Cc3ccccc3)NC(=O)OCc3ccccc3)ccc12 [Z-Phe-Arg-AMC] (Cbz-Phe-Arg-{AMC})
100 µM | Cc1cc(=O)oc2cc(NC(=O)[C@H](CCCNC(=N)N)NC(=O)[C@H](CCCNC(=N)N)NC(=O)OCc3ccccc3)ccc12 [Z-Arg-Arg-AMC] (Cbz-Arg-Arg-{AMC})

From paper PMC3514016 (The international journal of biochemistry & cell biology, 2009)
